{"source": "patent US10900063B2", "about": "“Measurement of Lp-PLA2 activity” (ASAHI KASEI PHARMA CORPORATION, priority 2016, dated 2021)"}
{"target": "T1, Lp-PLA2 (Homo sapiens, UniProt Q13093)", "T1 construct": "Individual serum No. 16, individual serum No. 78; from tissue; host or cells: serum and plasma (individual sera, pooled sera, heparin and citrated pooled plasma)", "T1 sequence (Q13093 22-441)": "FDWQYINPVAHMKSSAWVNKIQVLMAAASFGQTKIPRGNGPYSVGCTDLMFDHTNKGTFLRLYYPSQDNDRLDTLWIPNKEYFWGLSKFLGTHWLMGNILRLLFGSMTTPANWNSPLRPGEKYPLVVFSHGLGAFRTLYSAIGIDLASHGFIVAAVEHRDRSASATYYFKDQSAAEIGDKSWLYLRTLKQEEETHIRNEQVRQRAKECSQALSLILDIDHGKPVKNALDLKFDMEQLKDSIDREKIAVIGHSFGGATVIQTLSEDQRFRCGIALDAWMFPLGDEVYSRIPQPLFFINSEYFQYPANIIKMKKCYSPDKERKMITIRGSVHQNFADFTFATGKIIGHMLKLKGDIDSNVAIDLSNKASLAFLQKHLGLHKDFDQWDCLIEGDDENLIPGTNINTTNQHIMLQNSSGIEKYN", "assay": "Lp-PLA2 activity measurement in serum/plasma with reagents of the invention (PAF substrate, lyso-PAF-PLD, choline oxidase, peroxidase colorimetry)", "format": "biochemical", "details": "Example 4; 50 mM buffer pH 7.5 in R1 and R2; sample Individual serum 16", "procedure": "(§1) Unless otherwise specified, in these examples the Method 1 described under 1) below is used for calculating Lp-PLA2 activity values. In these examples, (nmol/min/mL) is sometimes expressed as (U/L).\n(§2) This is calculated by the following formula based on the absorbance change per minute (ΔmAbs/min) as calculated from absorbance at the measuring points and the millimolar extinction coefficient (ε=36) of TODB at 546 nm.\n(§3) 4 μL of the sample was mixed with 160 μL of the R1 reagent, and incubated for 5 minutes at 37° C. (measuring points 1 to 16), after which 40 μL of the R2 reagent was added to initiate a reaction (measuring point 17). The absorbance of water (blank) at the same measuring points was subtracted from the absorbance of the sample about 3.6 to 4.5 minutes after the reaction was initiated by addition of the R2 reagent (measuring points 30 to 33) to calculate the absorbance change per minute (ΔmAbs/min), and the Lp-PLA2 activity value (nmol/min/mL) was calculated according to the previous formula.\n(§4) […] was mixed with 150 μL of the R1 reagent, and incubated for 5 minutes at 37° C. (measuring points 1 to 15), after which 100 μL of the R2 reagent was added to initiate a reaction (measuring point 16). The absorbance of water (blank) at the same measuring points was subtracted from the absorbance of the sample about 2 to 3 minutes after the reaction was initiated by addition of the R2 reagent (measuring points 23 to 26) to calculate the absorbance change per minute (ΔmAbs/min), and the Lp-PLA2 activity value (nmol/min/mL) was calculated according to the previous formula. The values for absorbance change per minute (sensitivity) (ΔmAbs/min) and the Lp-PLA2 activity values (nmol/min/mL) at each pH are shown in Tables 1 and 2.\n(§5) 5 μL of sample was mixed with 150 μL of the R1 reagent, and incubated for 5 minutes at 37° C. (measuring points 1 to 15), after which 100 μL of the R2 reagent was added to initiate a reaction (measuring point 16). The absorbance of water (blank) at the same measuring points was subtracted from the absorbance of the sample about 3.5 to 4.5 minutes after the reaction was initiated by addition of the R2 reagent (measuring points 27 to 30) to calculate the absorbance change per minute (ΔmAbs/min), and the Lp-PLA2 activity value (nmol/min/mL) was calculated according to the previous formula. The values for absorbance change per minute (sensitivity) (ΔmAbs/min) and Lp-PLA2 activity (nmol/min/mL) and the relative activity for each substrate given 100 as the Lp-PLA2 activity value for PAF(C16) are shown in Tables 19 to 24.\n(§6) Each sample was mixed with 160 μL of the R1 reagent, and incubated for 5 minutes at 37° C., (measuring points 1 to 15), after which 40 μL of the R2 reagent was added to initiate the reaction (measuring point 16). The absorbance of water (blank) at the same measuring points was subtracted from the absorbance of the sample about 3.5 to 4.5 minutes after the reaction was initiated by addition of the R2 reagent (measuring points 27 to 30) to calculate the absorbance change per minute (ΔmAbs/min), and the Lp-PLA2 activity value (nmol/min/mL) was calculated according to the previous formula. […]\nas §3, with “(measuring” for “4 μL of the sample was mixed with 160 μL of the R1 reagent, and incubated for 5 minutes at 37° C. (measuring”, “100” for “40”, “3.5” for “3.6”, “29” for “30”, “32)” for “33)”", "units": {"Lp-PLA2 activity value": "nmol/min/mL"}}
{"compound": "O=S(=O)(O)CCN1CCN(CCO)CC1", "note": "[HEPES, 2-[4-(2-Hydroxyethyl)-1-piperazinyl]ethanesulfonic acid]", "Lp-PLA2 activity value": 76.4, "absorbance change per minute (sensitivity)": "32.6 ΔmAbs/min"}
{"compound": "O=S(=O)(O)CCCN1CCOCC1", "note": "[MOPS, 3-Morpholinopropanesulfonic acid]", "Lp-PLA2 activity value": 81.3, "absorbance change per minute (sensitivity)": "34.7 ΔmAbs/min"}
{"compound": "O=S(=O)(O)CCN1CCN(CCS(=O)(=O)O)CC1", "note": "[PIPES, Piperazine-1,4-bis(2-ethanesulfonic acid)]", "Lp-PLA2 activity value": 89.5, "absorbance change per minute (sensitivity)": "38.2 ΔmAbs/min"}
{"compound": "O=P(O)(O)O", "note": "[Pi-K, potassium phosphate]", "Lp-PLA2 activity value": 84.3, "absorbance change per minute (sensitivity)": "36.0 ΔmAbs/min"}
{"compound": "O=S(=O)(O)CCNC(CO)(CO)CO", "note": "[TES, N-tris(hydroxymethyl)methyl-2-aminoethanesulfonic acid]", "Lp-PLA2 activity value": 75.7, "absorbance change per minute (sensitivity)": "32.3 ΔmAbs/min"}
{"compound": "NC(CO)(CO)CO", "note": "[Tris, 2-Amino-2-hydroxymethyl-1,3-propanediol]", "Lp-PLA2 activity value": 99.1, "absorbance change per minute (sensitivity)": "42.3 ΔmAbs/min"}
{"target": "T1, Lp-PLA2", "assay": "Lp-PLA2 activity measurement in serum/plasma with reagents of the invention (PAF substrate, lyso-PAF-PLD, choline oxidase, peroxidase colorimetry)", "format": "biochemical", "details": "Example 4; 50 mM buffer pH 7.5 in R1 and R2; sample Individual serum 78", "procedure": "as §1, §2, §3, §4, §5, §6\nas §3, with “(measuring” for “4 μL of the sample was mixed with 160 μL of the R1 reagent, and incubated for 5 minutes at 37° C. (measuring”, “100” for “40”, “3.5” for “3.6”, “29” for “30”, “32)” for “33)”", "units": {"Lp-PLA2 activity value": "nmol/min/mL"}}
{"compound": "O=S(=O)(O)CCN1CCN(CCO)CC1", "note": "[HEPES, 2-[4-(2-Hydroxyethyl)-1-piperazinyl]ethanesulfonic acid]", "Lp-PLA2 activity value": 36.5, "absorbance change per minute (sensitivity)": "15.6 ΔmAbs/min"}
{"compound": "O=S(=O)(O)CCCN1CCOCC1", "note": "[MOPS, 3-Morpholinopropanesulfonic acid]", "Lp-PLA2 activity value": 39.4, "absorbance change per minute (sensitivity)": "16.8 ΔmAbs/min"}
{"compound": "O=S(=O)(O)CCN1CCN(CCS(=O)(=O)O)CC1", "note": "[PIPES, Piperazine-1,4-bis(2-ethanesulfonic acid)]", "Lp-PLA2 activity value": 43.1, "absorbance change per minute (sensitivity)": "18.4 ΔmAbs/min"}
{"compound": "O=P(O)(O)O", "note": "[Pi-K, potassium phosphate]", "Lp-PLA2 activity value": 37.5, "absorbance change per minute (sensitivity)": "16.0 ΔmAbs/min"}
{"compound": "O=S(=O)(O)CCNC(CO)(CO)CO", "note": "[TES, N-tris(hydroxymethyl)methyl-2-aminoethanesulfonic acid]", "Lp-PLA2 activity value": 37.5, "absorbance change per minute (sensitivity)": "16.0 ΔmAbs/min"}
{"compound": "NC(CO)(CO)CO", "note": "[Tris, 2-Amino-2-hydroxymethyl-1,3-propanediol]", "Lp-PLA2 activity value": 44.7, "absorbance change per minute (sensitivity)": "19.1 ΔmAbs/min"}
{"target": "T1, Lp-PLA2", "assay": "Lp-PLA2 activity measurement in serum/plasma with reagents of the invention (PAF substrate, lyso-PAF-PLD, choline oxidase, peroxidase colorimetry)", "format": "biochemical", "details": "Example 10; 0.03% Trinder reagent in R1 with 4-AA; sample Individual serum No16", "procedure": "as §1, §2, §3, §4, §5, §6\nas §3, with “(measuring” for “4 μL of the sample was mixed with 160 μL of the R1 reagent, and incubated for 5 minutes at 37° C. (measuring”, “100” for “40”, “3.5” for “3.6”, “29” for “30”, “32)” for “33)”", "units": {"Lp-PLA2 activity value": "nmol/min/mL"}}
{"compound": "CCN(CC(O)CS(=O)(=O)[O-])c1cc(OC)cc(OC)c1.[Na+]", "note": "(centres unmarked) [DAOS, N-ethyl-N-(2-hydroxy-3-sulfopropyl)-3,5-dimethoxyaniline sodium salt]", "Lp-PLA2 activity value": 33.7, "absorbance change per minute (sensitivity)": "14.4 ΔmAbs/min"}
{"compound": "Cc1cccc(N(CCCCS(=O)(=O)[O-])CCCCS(=O)(=O)[O-])c1.[Na+].[Na+]", "note": "[TODB, N,N-bis(4-sulfobutyl)-3-methylaniline, disodium salt]", "Lp-PLA2 activity value": 71.0, "absorbance change per minute (sensitivity)": "30.3 ΔmAbs/min"}
{"compound": "CCN(CC(O)CS(=O)(=O)[O-])c1cccc(C)c1.O.O.[Na+]", "note": "(centres unmarked) [TOOS, N-ethyl-N-(2-hydroxy-3-sulfopropyl)-3-methylaniline, sodium salt, dihydrate]", "Lp-PLA2 activity value": 69.3, "absorbance change per minute (sensitivity)": "29.6 ΔmAbs/min"}
{"target": "T1, Lp-PLA2", "assay": "Lp-PLA2 activity measurement in serum/plasma with reagents of the invention (PAF substrate, lyso-PAF-PLD, choline oxidase, peroxidase colorimetry)", "format": "biochemical", "details": "Example 10; 0.03% Trinder reagent in R1 with 4-AA; sample Individual serum No78", "procedure": "as §1, §2, §3, §4, §5, §6\nas §3, with “(measuring” for “4 μL of the sample was mixed with 160 μL of the R1 reagent, and incubated for 5 minutes at 37° C. (measuring”, “100” for “40”, “3.5” for “3.6”, “29” for “30”, “32)” for “33)”", "units": {"Lp-PLA2 activity value": "nmol/min/mL"}}
{"compound": "CCN(CC(O)CS(=O)(=O)[O-])c1cc(OC)cc(OC)c1.[Na+]", "note": "(centres unmarked) [DAOS, N-ethyl-N-(2-hydroxy-3-sulfopropyl)-3,5-dimethoxyaniline sodium salt]", "Lp-PLA2 activity value": 14.5, "absorbance change per minute (sensitivity)": "6.2 ΔmAbs/min"}
{"compound": "Cc1cccc(N(CCCCS(=O)(=O)[O-])CCCCS(=O)(=O)[O-])c1.[Na+].[Na+]", "note": "[TODB, N,N-bis(4-sulfobutyl)-3-methylaniline, disodium salt]", "Lp-PLA2 activity value": 30.0, "absorbance change per minute (sensitivity)": "12.8 ΔmAbs/min"}
{"compound": "CCN(CC(O)CS(=O)(=O)[O-])c1cccc(C)c1.O.O.[Na+]", "note": "(centres unmarked) [TOOS, N-ethyl-N-(2-hydroxy-3-sulfopropyl)-3-methylaniline, sodium salt, dihydrate]", "Lp-PLA2 activity value": 28.1, "absorbance change per minute (sensitivity)": "12.0 ΔmAbs/min"}
{"target": "T1, Lp-PLA2", "assay": "Lp-PLA2 activity measurement in serum/plasma with reagents of the invention (PAF substrate, lyso-PAF-PLD, choline oxidase, peroxidase colorimetry)", "format": "biochemical", "details": "Example 10; 0.03% Trinder reagent in R1 with 4-AA; sample Pooled serum J042", "procedure": "as §1, §2, §3, §4, §5, §6\nas §3, with “(measuring” for “4 μL of the sample was mixed with 160 μL of the R1 reagent, and incubated for 5 minutes at 37° C. (measuring”, “100” for “40”, “3.5” for “3.6”, “29” for “30”, “32)” for “33)”", "units": {"Lp-PLA2 activity value": "nmol/min/mL"}}
{"compound": "CCN(CC(O)CS(=O)(=O)[O-])c1cc(OC)cc(OC)c1.[Na+]", "note": "(centres unmarked) [DAOS, N-ethyl-N-(2-hydroxy-3-sulfopropyl)-3,5-dimethoxyaniline sodium salt]", "Lp-PLA2 activity value": 14.1, "absorbance change per minute (sensitivity)": "6.0 ΔmAbs/min"}
{"compound": "Cc1cccc(N(CCCCS(=O)(=O)[O-])CCCCS(=O)(=O)[O-])c1.[Na+].[Na+]", "note": "[TODB, N,N-bis(4-sulfobutyl)-3-methylaniline, disodium salt]", "Lp-PLA2 activity value": 31.9, "absorbance change per minute (sensitivity)": "13.6 ΔmAbs/min"}
{"compound": "CCN(CC(O)CS(=O)(=O)[O-])c1cccc(C)c1.O.O.[Na+]", "note": "(centres unmarked) [TOOS, N-ethyl-N-(2-hydroxy-3-sulfopropyl)-3-methylaniline, sodium salt, dihydrate]", "Lp-PLA2 activity value": 30.9, "absorbance change per minute (sensitivity)": "13.2 ΔmAbs/min"}
{"target": "T1, Lp-PLA2", "assay": "Lp-PLA2 activity measurement in serum/plasma with reagents of the invention (PAF substrate, lyso-PAF-PLD, choline oxidase, peroxidase colorimetry)", "format": "biochemical", "details": "Example 10; Trinder reagent with 4-AA", "procedure": "as §1, §2, §3, §4, §5, §6\nas §3, with “(measuring” for “4 μL of the sample was mixed with 160 μL of the R1 reagent, and incubated for 5 minutes at 37° C. (measuring”, “100” for “40”, “3.5” for “3.6”, “29” for “30”, “32)” for “33)”"}
{"compound": "Cc1cccc(N(CCCCS(=O)(=O)[O-])CCCCS(=O)(=O)[O-])c1.[Na+].[Na+]", "note": "[TODB, N,N-bis(4-sulfobutyl)-3-methylaniline, disodium salt]", "values for absorbance change (sensitivity) compared with DAOS": "about twice those obtained with DAOS"}
{"compound": "CCN(CC(O)CS(=O)(=O)[O-])c1cccc(C)c1.O.O.[Na+]", "note": "(centres unmarked) [TOOS, N-ethyl-N-(2-hydroxy-3-sulfopropyl)-3-methylaniline, sodium salt, dihydrate]", "values for absorbance change (sensitivity) compared with DAOS": "about twice those obtained with DAOS"}
